The results in this text go back to patent US7179832B2, “Glycogen synthase kinase 3β inhibitor, composition and process for the preparation thereof” (Crystalgenomics, Inc., priority 2003, dated 2007).

Usually IC50 stands for the concentration needed to halve the response being measured.

The first test deals with GSK-3β (Homo sapiens, UniProt P49841). As to the kind of experiment: Assay for GSK-3β inhibiting activity (32P-ATP, phospho-CREB peptide substrate, filter paper, CPM). It counts as biochemical. The conditions noted are these: GSK-3β inhibiting activity; 100 nM GSK-3β protein, 100 μM phospho-CREB peptide, 100 μM ATP, 30° C. for 1 hour; read-out: IC50. How it is done: Assay for GSK-3β inhibiting activity
Sequence of GSK-3β (P49841 whole entry, the tested form may be a part): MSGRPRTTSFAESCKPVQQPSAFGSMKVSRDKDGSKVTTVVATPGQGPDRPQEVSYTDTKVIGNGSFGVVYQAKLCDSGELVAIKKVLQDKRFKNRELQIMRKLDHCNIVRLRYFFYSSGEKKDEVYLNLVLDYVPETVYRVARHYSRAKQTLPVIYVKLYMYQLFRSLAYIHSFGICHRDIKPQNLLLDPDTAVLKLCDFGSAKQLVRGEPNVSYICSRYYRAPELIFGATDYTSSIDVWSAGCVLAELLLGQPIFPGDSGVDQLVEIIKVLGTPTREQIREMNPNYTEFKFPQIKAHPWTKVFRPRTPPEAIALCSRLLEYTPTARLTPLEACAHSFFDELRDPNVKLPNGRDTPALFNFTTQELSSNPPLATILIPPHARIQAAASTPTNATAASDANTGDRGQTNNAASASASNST
First, PCR (polymerase chain reaction) was carried out using human DNA as a template as well as primers which were designed to correspond to the 3′- and 5′ ends of the polynucleotide coding human GSK-3β gene (Genbank Accession No.: L33801). The BamH1/XhoI fragment of the amplified PCR product thus obtained was inserted into the pGex vector between the BamH1 and XhoI sites, and the vector obtained was transformed into E. coli BL21(DE3). The transformed cells thus obtained was incubated in […] (1% Bacto-trypton, 0.5% yeast extract, 1% NaCl) containing ampicillin ([…]) until the optical density at 600 nm reached about 0.5. The cultured mixture was cooled to 18° C. and isopropyl β-D-thiogalacto-pyranoside (IPTG) was added thereto to a final concentration of 0.5 mM. After 16 hours, the resultant was centrifuged at 10,000×g for 10 min, the collected cells were suspended in a buffer solution (30 mM Tris-HCl (pH 7.5), 100 mM NaCl, 5% glycerol, 2 mM DTT) and the cells were disrupted using Sonic Dismembrator (Fisher, U.S.A.) in a ice bath. The resulting solution was centrifuged at 16,000 rpm for 30 minutes. […] The purified GSK-3β protein was diluted in a buffer solution (20 mM HEPES (pH 7.5), 5% glycerol, 2 mM DTT) to a final concentration of 50 mM NaCl and the resulting solution was subjected to mono S column chromatography (eluent: linear gradient from 0M to 1M NaCl buffer) using mono S column (Pharmacia Biotech, U.S.A.) equilibrated in the same buffer solution to obtain GSK-3β protein.
The reaction was stopped by adding 5 μl of 5% phosphoric acid to 25 μl of the resulting solution. The resulting mixture was centrifuged at 15,000 rpm for 10 min, 20 μl of the supernatant was added dropwise to Whatman p81 filter paper, and then, the resulting filter paper was washed with 0.5% phosphate buffer for 10 min. The filter paper was further washed 3 times and the enzymatic activity was determined by examining the extent of phospho-CREB peptide phosphorylation which is represented by the unit of count per minute (CPM), measured with a β-counter (Packard, USA).
The GSK-3β inhibiting activity was then calculated in accordance with the following equation:
[formula] wherein the blank represents a value obtained without the use of the enzyme and the compound of the present invention, and the control, in the absence of the compound of the present invention.
As for `O=C(NCc1ccc([N+](=O)[O-])cc1)c1ccc(O)c2[nH]c(-c3ccc(Cl)cc3)nc12` [Compound 53], the half-maximal inhibitory concentration (IC50) was > 1 µM.
Regarding `CC(C)c1nccn1CCCNC(=O)c1ccc(O)c2[nH]c(-c3ccc(F)cc3F)nc12` [Compound 191], the IC50 came to 0.09 µM.
As to `O=C(Nc1ccc(CCN2C(=O)c3ccccc3C2=O)cc1)c1ccc(O)c2[nH]c(-c3ccc(Cl)cc3Cl)nc12` [Compound 30], the half-maximal inhibitory concentration (IC50) was > 1 µM.
For the compound `O=C(NCCCn1cnc(Cl)c1Cl)c1ccc(O)c2[nH]c(-c3ccc(F)cc3F)nc12` [Compound 197], the IC50 turned out to be 0.003 µM.
As for `O=C(NCc1ccccc1)c1ccc(O)c2nc(-c3ccccc3)[nH]c12` [Compound 51], the half-maximal inhibitory concentration (IC50) stood at 0.87 µM.
For the compound `CN(C)c1ccc(CCNC(=O)c2ccc(O)c3[nH]c(-c4ccc(Cl)cc4)nc23)cc1` [Compound 93], the IC50 was > 1 µM.
Take `Cc1nccn1CCCNC(=O)c1ccc(O)c2[nH]c(-c3ccc(F)cc3Cl)nc12` [Compound 201]: the IC50 was found to be 0.07 µM.
The same measure, in the same setting: for `O=C(NCCN1CCOCC1)c1ccc(O)c2[nH]c(-c3ccc(Cl)cc3)nc12` [Compound 78] the value was > 1 µM; for `O=C(NCCCn1ccnc1)c1ccc(O)c2[nH]c(-c3ccc(F)cc3F)nc12` [Compound 192], 0.008 µM.
For the compound `O=C(NCCc1ccc(O)cc1)c1ccc(O)c2[nH]c(-c3ccccc3)nc12` [Compound 58], the IC50 came out at 0.67 µM.
The same measure, in the same setting: for `Cc1ccc(S(=O)(=O)NCCc2ccc(NC(=O)c3ccc(O)c4[nH]c(-c5ccc(F)cc5)nc34)cc2)cc1` [Compound 34] the value was > 1 µM; for `O=C(NCCCn1ccnc1-c1ccccc1)c1ccc(O)c2[nH]c(-c3ccc(Cl)cc3Cl)nc12` [Compound 180], 0.21 µM; for `O=C(CN1CCOCC1)Nc1ccc(CCNC(=O)c2ccc(O)c3[nH]c(-c4ccc(Cl)cc4)nc23)cc1` [Compound 92], 0.08 µM.
On the same count and under the same terms, for `O=C(NCCc1cccc(Br)c1)c1ccc(O)c2[nH]c(-c3ccc(Cl)cc3)nc12` [Compound 98] the value was > 1 µM; for `Cc1cn(CCCNC(=O)c2ccc(O)c3[nH]c(-c4ccc(F)c(Cl)c4)nc23)cn1` [Compound 202], 0.009 µM; for `CS(=O)(=O)Nc1ccc(NCCNC(=O)c2ccc(O)c3[nH]c(-c4ccc(F)cc4)nc23)nc1` [Compound 123], 0.05 µM.
On the same count and under the same terms, for `CCS(=O)(=O)NCCc1ccc(NC(=O)c2ccc(O)c3[nH]c(-c4ccccc4)nc23)cc1` [Compound 13] the value was 0.36 µM; for `O=C(NCCc1ccccc1)c1ccc(O)c2nc(-c3ccccc3)[nH]c12` [Compound 57], 0.58 µM.
Turning to `O=C(NCCCN1CCOCC1)c1ccc(O)c2[nH]c(-c3ccccc3)nc12` [Compound 166], the IC50 is > 1 µM.
As to `NCCNC(=O)c1ccc(O)c2[nH]c(-c3ccccc3)nc12` [Compound 61], the half-maximal inhibitory concentration (IC50) is > 1 µM.
Turning to `CCS(=O)(=O)NCCc1ccc(NC(=O)c2ccc(O)c3[nH]c(-c4ccc(F)cc4)nc23)cc1` [Compound 35], the IC50 was found to be 0.007 µM.
Same read-out and setting: to `O=C(NCCc1ccc(O)cc1)c1ccc(O)c2[nH]c(-c3ccc(Cl)cc3)nc12` [Compound 74] belongs > 1 µM.
On the same count and under the same terms, for `O=C(NCCNc1ccc([N+](=O)[O-])cn1)c1ccc(O)c2[nH]c(-c3ccccc3)nc12` [Compound 69] the value was > 1 µM.
Still for that read-out and setting: to `O=C(Nc1ccc(N2CCOCC2)cc1)c1ccc(O)c2[nH]c(-c3ccc(F)cc3)nc12` [Compound 36] belongs > 1 µM.
`CN1CCN(CC(=O)Nc2ccc(CCNC(=O)c3ccc(O)c4[nH]c(-c5ccc(Cl)cc5)nc34)cc2)CC1` [Compound 86]: the half-maximal inhibitory concentration (IC50) is 0.25 µM.
For the compound `CN(C)CC(=O)Nc1ccc(CCNC(=O)c2ccc(O)c3[nH]c(-c4ccc(Cl)cc4)nc23)cc1` [Compound 88], the IC50 is 0.22 µM.
As for `O=C(NCCc1ccc(N2CCOCC2)cc1)c1ccc(O)c2[nH]c(-c3ccc(F)cc3)nc12` [Compound 132], the concentration for half-maximal inhibition (IC50) was found to be 0.19 µM.
For `CN1CCN(CCNC(=O)c2ccc(O)c3[nH]c(-c4ccc(F)cc4)nc23)CC1` [Compound 118], the IC50 is > 5 µM.
For `CS(=O)(=O)Nc1ccc(CCNC(=O)c2ccc(O)c3nc(-c4ccc(Cl)cc4)[nH]c23)cc1` [Compound 75], the IC50 worked out at 0.009 µM.
Still for that read-out and setting: to `CCN1CCN(CC(=O)Nc2ccc(CCNC(=O)c3ccc(O)c4[nH]c(-c5ccc(Cl)cc5)nc34)cc2)CC1` [Compound 87] belongs 0.23 µM.
In the case of `O=C(NCCCn1ccnc1)c1ccc(O)c2[nH]c(-c3ccc(F)cc3Cl)nc12` [Compound 198], the IC50 is 0.02 µM.
For `CS(=O)(=O)Nc1ccc(NCCNC(=O)c2ccc(O)c3[nH]c(-c4ccc(F)cc4Cl)nc23)nc1` [Compound 152], the 50% inhibitory concentration (IC50) amounted to 0.24 µM.
For the compound `CS(=O)(=O)NCCc1ccc(NC(=O)c2ccc(O)c3[nH]c(-c4ccccc4)nc23)cc1` [Compound 10], the IC50 came out at 0.04 µM.
On the same count and under the same terms, for `CCCCNC(=O)c1ccc(O)c2[nH]c(-c3ccccc3)nc12` [Compound 162] the value was 0.24 µM; for `Cc1ccc(S(=O)(=O)Nc2ccc(CCNC(=O)c3ccc(O)c4[nH]c(-c5ccc(Cl)cc5)nc34)cc2)cc1` [Compound 76], 0.05 µM; for `CN1CCN(CCNC(=O)c2ccc(O)c3[nH]c(-c4ccc(F)cc4Cl)nc23)CC1` [Compound 148], > 1 µM.
Still for that read-out and setting: to `O=C(NCCc1ccc(N2C(=O)c3ccccc3C2=O)cc1)c1ccc(O)c2[nH]c(-c3ccc(Cl)cc3Cl)nc12` [Compound 107] belongs 0.05 µM; to `O=C(NCCCn1cnc(Cl)c1Cl)c1ccc(O)c2[nH]c(-c3ccc(F)cc3)nc12` [Compound 190], 0.006 µM; to `NCCc1ccc(NC(=O)c2ccc(O)c3[nH]c(-c4ccc(Cl)cc4Cl)nc23)cc1` [Compound 24], > 5 µM.
The same measure, in the same setting: to `O=C(NCCCn1cnc(Cl)c1Cl)c1ccc(O)c2[nH]c(-c3ccc(NCCN4CCOCC4)cc3)nc12` [Compound 204, 7-hydroxy-2-[4-(2-morpholin-4-yl-ethylamino)-phenyl]-1H-benzoimidazole-4-carboxylic acid [3-(4,5-dichloro-imidazol-1-yl)-propyl]-amide] belongs > 5 µM.
For the compound `O=C(NC1CCC(O)CC1)c1ccc(O)c2[nH]c(-c3ccc(Cl)cc3Cl)nc12` (centres unmarked) [Compound 23], the 50% inhibitory concentration (IC50) is 0.68 µM.
Same read-out and setting: for `O=C(NCCc1ccc(N2C(=O)c3ccccc3C2=O)cc1)c1ccc(O)c2[nH]c(-c3ccccc3)nc12` [Compound 67] the value was 0.16 µM.
As for `CCS(=O)(=O)NCCc1ccc(NC(=O)c2ccc(O)c3[nH]c(-c4ccc(F)c(Cl)c4)nc23)cc1` [Compound 44], the IC50 was > 1 µM.
Same read-out and setting: for `CN1CCN(CCOc2ccc(CCNC(=O)c3ccc(O)c4[nH]c(-c5ccc(Cl)cc5)nc34)cc2)CC1` [Compound 95] the value was > 1 µM; for `O=C(NCCCN1CCCC1=O)c1ccc(O)c2[nH]c(-c3ccccc3)nc12` [Compound 164], 0.84 µM.
With `O=C(c1ccc(O)c2[nH]c(-c3ccc(Cl)cc3Cl)nc12)N1CCCCC1` [Compound 48], the IC50 was > 5 µM.
Same read-out and setting: to `O=C(NCCCN1CCOCC1)c1ccc(O)c2[nH]c(-c3ccc(Cl)cc3Cl)nc12` [Compound 179] belongs > 1 µM.
Still for that read-out and setting: to `COc1ccccc1CCNC(=O)c1ccc(O)c2[nH]c(-c3ccc(Cl)cc3)nc12` [Compound 97] belongs 0.17 µM; to `CS(=O)(=O)Nc1ccc(CCNC(=O)c2ccc(O)c3[nH]c(-c4ccc(F)c(Cl)c4)nc23)cc1` [Compound 161], 0.09 µM.
For the compound `CS(=O)(=O)NCCc1ccc(NC(=O)c2ccc(O)c3[nH]c(-c4ccc(F)cc4)nc23)cc1` [Compound 33], the IC50 was > 1 µM.
Same read-out and setting: for `COc1ccccc1CCNC(=O)c1ccc(O)c2[nH]c(-c3ccc(F)cc3)nc12` [Compound 138] the value was > 1 µM.
As to `Nc1ccc(CCNC(=O)c2ccc(O)c3[nH]c(-c4ccc(F)cc4)nc23)cc1` [Compound 131], the half-inhibitory concentration (IC50) worked out at 0.17 µM.
As for `O=C(NCCc1ccccc1O)c1ccc(O)c2[nH]c(-c3ccc(F)cc3)nc12` [Compound 137], the 50% inhibitory concentration (IC50) stood at 0.005 µM.
On to `O=C(Nc1ccc(CCNS(=O)(=O)c2cccs2)cc1)c1ccc(O)c2[nH]c(-c3ccc(Cl)cc3Cl)nc12` [Compound 31], for which the 50% inhibitory concentration (IC50) is > 1 µM.
Still for that read-out and setting: to `NC(=O)c1ccc(O)c2[nH]c(-c3ccccc3)nc12` [Compound 1, 7-hydroxy-2-phenyl-1H-benzoimidazole-4-carboxylic acid amide] belongs > 1 µM.

Staying with this test, now noted: IC50 (μM).
For the compound `CS(=O)(=O)NCCc1ccc(NC(=O)c2ccc(O)c3[nH]c(-c4ccc(Cl)cc4Cl)nc23)cc1` [Compound 29], the 50% inhibitory concentration (IC50) turned out to be 0.08 µM.
